Drawing on DBAASP, this text covers MIC for 4 compounds.

As usually defined, the MIC is the lowest concentration found to suppress growth.

Common to all, as to assay: ≥ marks a high value that may be exact or a test limit, other limits are often not marked, values filed in µg/mL are converted to µM
For test [1], the system named is Aspergillus niger IP218-53.
The test system of test [2] is Aspergillus fumigatus IP1025-70.
Test [3] deals with Staphylococcus aureus IP76-25.
In test [4] the test system is Candida albicans IP884-65.
For test [5], the system named is Aeromonas caviae IP67-16T.
For test [6], the system named is Enterococcus faecalis IP103214.
The test system of test [7] is Escherichia coli IP76-24.
The subject of test [8] is Nocardia brasiliensis IP16-80.
The test system of test [9] is Trichophyton simii IP1063-74.
In test [10] the test system is Saccharomyces cerevisiae IP118079.
In test [11] the test system is Cryptococcus neoformans IP960-67.
Test [12] deals with Serratia sp.
For test [13], the system named is Cryptococcus neoformans.
The test system of test [14] is Pseudomonas putida.
Test [15] deals with Salmonella typhimurium.
For test [16], the system named is Candida albicans.
Test [17] deals with Saccharomyces cerevisiae.
The test system of test [18] is Bacillus subtilis.
Test [19] relates to Streptococcus mutans.
In test [20] the test system is Escherichia coli.
In test [21] the test system is Staphylococcus aureus.
Test [22] relates to Klebsiella oxytoca.
Test [23] has as its system Klebsiella pneumoniae.
Test [24] relates to Enterobacter cloacae.
Test [25] concerns Enterobacter cloacae ATCC 13047.
Test [26] relates to Raoultella ornithinolytica.
In test [27] the test system is Pseudomonas aeruginosa.
For test [28], the system named is Klebsiella aerogenes.
Test [29] deals with Streptococcus agalactiae.
The test system of test [30] is Stenotrophomonas maltophilia ATCC 13637.
The subject of test [31] is Staphylococcus epidermidis.
Test [32] has as its system Escherichia coli ATCC 25922.
Test [33] deals with Proteus mirabilis ATCC 12453.
For test [34], the system named is Serratia marcescens.
The subject of test [35] is Staphylococcus hominis.
Test [36] deals with Staphylococcus epidermidis ATCC 12228.
In test [37] the test system is Staphylococcus hominis ATCC 29970.
Test [38] relates to Acinetobacter baumannii ATCC 19606.
The subject of test [39] is Staphylococcus aureus ATCC 29213.
Test [40] has as its system Enterococcus faecium.
Test [41] concerns Klebsiella aerogenes ATCC 49701.
Test [42] has as its system Bacillus subtilis ATCC 21332.
Test [43] has as its system Serratia marcescens ATCC 14041.
In test [44] the test system is Enterococcus faecium ATCC 29212.
Test [45] relates to Raoultella ornithinolytica ATCC 31898.
Test [46] deals with Proteus mirabilis.
Test [47] has as its system Klebsiella oxytoca ATCC 43086.
For test [48], the system named is Pseudomonas aeruginosa ATCC 15442.
Test [49] concerns Acinetobacter baumannii.
In test [50] the test system is Klebsiella pneumoniae ATCC 700603.
For test [51], the system named is Stenotrophomonas maltophilia.
Test [52] concerns Staphylococcus aureus FDA 209P.
For test [53], the system named is Pseudomonas aeruginosa U-31.
Test [54] relates to Escherichia coli NIHJ JC-2.
The subject of test [55] is Bacillus subtilis PCI 219.

Values after ≈ are worked out from the molar mass of the structure shown. Values joined by “and” are separate entries in the source; they are usually repeats but may differ in a detail not shown here. Equal entries are not always repeated.

Take `CC[C@H](C)[C@H](NC(=O)CNC(=O)[C@H](CCCCN)NC(=O)[C@H](CC(C)C)NC(=O)[C@H](CCSC)NC(=O)[C@H](CC(N)=O)NC(=O)[C@H](CCCCN)NC(=O)[C@H](Cc1c[nH]c2ccccc12)NC(=O)[C@H](CC(C)C)NC(=O)[C@H](C)N)C(=O)NCC(=O)N[C@@H](CCCCN)C(N)=O` [ALWKNMLKGIGK]: the MIC was ≥ 90 µM in test [1]; ≥ 90 µM in [2]; ≥ 150 µM in [3]; ≥ 40 µM in [4]; 6 µM (≈ 8.15 µg/mL) in [5]; 6 µM (≈ 8.15 µg/mL) in [6]. The minimal inhibitory concentration (MIC) is 6 µM (≈ 8.15 µg/mL) in test [7]; ≥ 150 µM in [8]; ≥ 70 µM in test [9]; 20 µM (≈ 27.2 µg/mL) in test [10]; 6 µM (≈ 8.15 µg/mL) in [11].
Consider `CC[C@H](C)[C@H](NC(=O)[C@H](CO)NC(=O)[C@H](CCCCN)NC(=O)[C@H](Cc1ccccc1)NC(=O)[C@H](CCCCN)NC(=O)[C@H](CCCCN)NC(=O)[C@H](CC(C)C)NC(=O)[C@@H]1CCCN1C(=O)[C@@H](NC(=O)[C@H](CCCCN)NC(=O)[C@@H](NC(=O)[C@@H](NC(=O)[C@H](C)N)C(C)C)C(C)C)C(C)C)C(=O)N[C@@H](CCCN=C(N)N)C(=O)N[C@@H](CCC(=O)O)C(=O)N[C@H](C(=O)N[C@@H](CCSC)C(=O)N[C@@H](CCCCN)C(=O)N[C@@H](CCC(=O)O)C(=O)N[C@@H](CCCCN)C(=O)NCC(=O)N[C@@H](CC(C)C)C(=O)N[C@@H](CC(C)C)C(=O)N[C@@H](CCC(=O)O)C(=O)N[C@@H](CC(=O)O)C(=O)N[C@@H](Cc1ccccc1)C(=O)O)[C@@H](C)O` [AVVKVPLKKFKSIRETMKEKGLLEDF], for which the MIC is ≥ 65.9 µM in test [12]; ≥ 33 µM in test [13]; ≥ 33 µM in test [14]; 6.59 µM (≈ 20 µg/mL) in test [15]; 33 µM (≈ 100 µg/mL) in [16]; 3.95 µM (≈ 12 µg/mL) in [17]. For the same compound, the MIC in test [18] was found to be 16.5 µM (≈ 50 µg/mL); in test [19] it was 16.5 µM (≈ 50 µg/mL); in test [20], 16.5 µM (≈ 50 µg/mL); in [21] it was 33 µM (≈ 100 µg/mL).
With `CC[C@H](C)[C@H](NC(=O)[C@@H](NC(=O)[C@@H]1CCCN1C(=O)[C@@H](NC(=O)[C@@H]1CCCN1C(=O)[C@H](CCCCN)NC(=O)[C@H](CCCCN)NC(=O)[C@H](CO)NC(=O)CN)C(C)C)[C@@H](C)CC)C(=O)N[C@@H](Cc1ccc(O)cc1)C(=O)N[C@H]1CSSC[C@@H](C(=O)N[C@@H](CCC(N)=O)C(=O)N[C@@H](CCCN=C(N)N)C(=O)N[C@@H](CCSC)C(=O)O)NC(=O)[C@H](CCCCN)NC(=O)CNC(=O)[C@H](CO)NC(=O)[C@H](CCCN=C(N)N)NC(=O)[C@H](CCCN=C(N)N)NC(=O)[C@H](CC(N)=O)NC1=O` [GSKKPVPIIYCNRRSGKCQRM], the MIC in test [22] was 3.3 µM (≈ 7.99 µg/mL); in test [23] it was 2.34 µM (≈ 5.65 µg/mL); in [24], 4.67 µM (≈ 11.3 µg/mL); in test [25], 3.3 µM (≈ 7.99 µg/mL); in test [26], 3.3 µM (≈ 7.99 µg/mL); in [27], > 52.9 µM. Besides, the minimal inhibitory concentration (MIC) was 1.65 µM (≈ 4 µg/mL) in test [28]; ≥ 52.9 µM in [29]; ≥ 52.9 µM in test [30]; ≥ 52.9 µM in [31]; 2.34 µM and 1.6 µM in test [32]; ≥ 52.9 µM in test [33]. Further, the minimal inhibitory concentration (MIC) in test [34] is ≥ 52.9 µM; in test [35] it was ≥ 52.9 µM; in [36] it was > 52.9 µM; in test [37] it was ≥ 52.9 µM; in [38], > 52.9 µM; in test [39], > 52.9 µM. The MIC is ≥ 37.4 µM in [40]; 1.65 µM (≈ 4 µg/mL) in test [41]; 3.3 µM (≈ 7.99 µg/mL) in test [42]; 2.34 µM (≈ 5.65 µg/mL) in [20]; ≥ 52.9 µM in test [43]; 26.4 µM (≈ 63.9 µg/mL) in [44]. Moreover, the MIC in test [45] was 3.3 µM (≈ 7.99 µg/mL); in test [46], ≥ 52.9 µM; in test [47], 3.3 µM (≈ 7.99 µg/mL); in test [48], ≥ 52.9 µM; in test [49], ≥ 52.9 µM; in [50] it was 3.3 µM (≈ 7.99 µg/mL). Also, the minimum inhibitory concentration (MIC) in [51] was ≥ 52.9 µM; in [21], > 52.9 µM.
With `CC(C)C[C@H](NC(=O)[C@H](CCCCN)NC(=O)[C@H](CCCCN)NC(=O)[C@H](CCCCN)NC(=O)[C@H](CC(C)C)NC(=O)[C@H](CCCCN)NC(=O)[C@H](CCCCN)NC(=O)[C@H](Cc1c[nH]c2ccccc12)NC(=O)[C@H](CCCCN)NC(=O)[C@H](CCCCN)NC(=O)[C@H](CCCCN)NC(=O)[C@H](CC(C)C)NC(=O)[C@H](CCCCN)NC(=O)[C@H](CCCCN)NC(=O)[C@H](CC(C)C)NC(=O)[C@H](CCCCN)NC(=O)[C@@H](N)CCCCN)C(=O)N[C@@H](CCCCN)C(=O)O` [KKLKKLKKKWKKLKKKLK], the MIC in [52], in test [53], in test [54] and in [55] was ≥ 43 µM in each case.
